{"source": "BindingDB's records for patent US20230399327", "about": "(Adlai Nortye Biopharma Co., 2023)"}
{"target": "Mitogen-activated protein kinase kinase kinase kinase 1 (Homo sapiens, UniProt Q92918)", "sequence (Q92918 whole entry)": "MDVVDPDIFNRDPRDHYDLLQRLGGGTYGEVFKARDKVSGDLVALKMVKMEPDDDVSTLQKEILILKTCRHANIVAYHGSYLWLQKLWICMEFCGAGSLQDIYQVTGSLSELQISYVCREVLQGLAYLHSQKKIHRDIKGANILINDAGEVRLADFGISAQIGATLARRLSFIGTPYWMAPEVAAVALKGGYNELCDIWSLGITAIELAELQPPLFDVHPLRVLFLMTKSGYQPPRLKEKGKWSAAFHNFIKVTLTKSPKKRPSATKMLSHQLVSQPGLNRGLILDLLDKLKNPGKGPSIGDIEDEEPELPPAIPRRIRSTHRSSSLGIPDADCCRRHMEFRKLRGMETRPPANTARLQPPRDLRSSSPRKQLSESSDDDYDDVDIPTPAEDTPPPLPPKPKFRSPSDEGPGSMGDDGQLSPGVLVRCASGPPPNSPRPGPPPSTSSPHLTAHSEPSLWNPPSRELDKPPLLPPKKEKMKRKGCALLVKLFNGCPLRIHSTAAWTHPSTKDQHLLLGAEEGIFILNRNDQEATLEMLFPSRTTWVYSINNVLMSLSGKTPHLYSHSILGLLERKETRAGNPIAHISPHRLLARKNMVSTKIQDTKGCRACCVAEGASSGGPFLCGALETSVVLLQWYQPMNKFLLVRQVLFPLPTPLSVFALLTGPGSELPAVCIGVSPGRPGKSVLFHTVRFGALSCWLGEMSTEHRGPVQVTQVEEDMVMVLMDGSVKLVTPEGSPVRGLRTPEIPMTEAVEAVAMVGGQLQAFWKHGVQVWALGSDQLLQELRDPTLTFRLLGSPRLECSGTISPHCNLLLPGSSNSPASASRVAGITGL", "assay": "Detection of Compound's Ability to Inhibit HPK1 Kinase Activity Assay", "description": "The specific operation is as follows: configure the enzymatic reaction system buffer (10 mM MOPS, pH 7.2, 5 mM β-glycerol-phosphate, 10 mM MgCl2, 0.8 mM EDTA, 2 mM EGTA, 0.1 mM DTT); the test compound (1 mM the compound stock solution in DMSO) was diluted with buffer to the highest concentration of 60 uM (containing 6% DMSO), and the compound with a concentration of 60 μM was initially diluted 5 times with a buffer containing 6% DMSO for a total of 8 points of gradient concentration; then dilute HPK1 kinase to 30 nM in buffer. Add 2 μl of HPK1 kinase diluent to each well of a Greiner 384-well microplate (Cat. No. 784075), and add 2 μl of buffer to the control well; add 1 μl of the diluted compound to the reaction well after brief centrifugation, and add 1 μl buffer solution containing 6% DMSO to the control well; after short centrifugation, place in a 25° C. constant temperature incubator (Shanghai Yiheng Scientific Instrument Co., Ltd., Cat. No.: LRH-150) and incubate for 20 minutes. Add 3 μl of reaction substrate (10 μM MBP and 20 μM ATP dissolved in distilled water) to each well, briefly centrifuge and incubate in a constant temperature incubator at 25° C. for 60 min, and use ADP-Glo Kinase Assay Kit to detect the enzymatic reaction activity, ADP-Glo Kinase Assay Kit detection is carried out according to the operating instructions of the kit. Data are described using the half maximal inhibitory", "units": {"IC50": "nM"}}
{"smiles": "CC[C@H](CO)Nc1nccc2cnc(Nc3cc4c(nc3OC)CCN(C)C4)nc12", "note": "[US20230399327, Example 110]", "IC50": "< 0.1"}
{"smiles": "COc1nc2c(cc1Nc1ncc3ccnc(C4=CCOCC4)c3n1)CN(C)CC2", "note": "[US20230399327, Example 26]", "IC50": 8.31}
{"smiles": "CN1CCc2[nH]c(=O)c(Nc3ncc4ccnc(NCC(C)(C)CO)c4n3)cc2C1", "note": "[US20230399327, Example 70]", "IC50": 0.29}
{"smiles": "COc1nc2c(cc1Nc1ncc3cccc(-c4cnn5ccccc45)c3n1)CN(C)CC2", "note": "[US20230399327, Example 2]", "IC50": "< 0.1"}
{"smiles": "COc1nc2c(cc1Nc1ncc3ccnc(NCC(C)(C)O)c3n1)CN(C)CC2", "note": "[US20230399327, Example 111]", "IC50": "< 0.1"}
{"smiles": "CN1CCc2c(cc(Nc3ncc4ccnc(N5CCC(F)(F)CC5)c4n3)c(=O)n2C)C1", "note": "[US20230399327, Example 79]", "IC50": "< 0.1"}
{"smiles": "COc1nc2c(cc1Nc1ncc3ccnc(NC(C)(C)CO)c3n1)CN(C)CC2", "note": "[US20230399327, Example 109]", "IC50": "< 0.1"}
{"smiles": "COc1nc2c(cc1Nc1ncc3ccnc(N4CCC[C@H]4CO)c3n1)CN(C)CC2", "note": "[US20230399327, Example 101]", "IC50": "< 0.1"}
{"smiles": "COc1nc2c(cc1Nc1ncc3ccnc(N[C@H](CO)C(C)C)c3n1)CN(C)CC2", "note": "[US20230399327, Example 91]", "IC50": 21.5}
{"smiles": "C[C@@H]1CCCCN1c1nccc2cnc(Nc3cc4c([nH]c3=O)CCN(C)C4)nc12", "note": "[US20230399327, Example 76]", "IC50": "< 0.1"}
{"smiles": "CN1CCc2[nH]c(=O)c(Nc3ncc4ccnc(NCC5(C)CC5)c4n3)cc2C1", "note": "[US20230399327, Example 77]", "IC50": "< 0.1"}
{"smiles": "COc1cc2c(cc1Nc1ncc3ccnc(N[C@@H](CO)C(C)C)c3n1)CN(C)CC2", "note": "[US20230399327, Example 112]", "IC50": "< 0.1"}
{"smiles": "CCOc1nc2c(cc1Nc1ncc3ccnc(N[C@H](CO)C(C)C)c3n1)CN(C)CC2", "note": "[US20230399327, Example 89]", "IC50": "< 0.1"}
{"smiles": "COc1nc2c(cc1Nc1ncc3cccc(-c4ccccc4)c3n1)CN(C)CC2", "note": "[US20230399327, Example 1]", "IC50": "< 0.1"}
{"smiles": "CN1CCc2[nH]c(=O)c(Nc3ncc4ccnc(N5CCCCCC5)c4n3)cc2C1", "note": "[US20230399327, Example 73]", "IC50": 0.41}
{"smiles": "CCOc1nc2c(cc1Nc1ncc3ccnc(N4CCC[C@H]4CO)c3n1)CN(C)CC2", "note": "[US20230399327, Example 106]", "IC50": 15.4}
{"smiles": "CCOc1nc2c(cc1Nc1ncc3ccnc(N[C@@H]4CCC[C@H]4O)c3n1)CN(C)CC2", "note": "[US20230399327, Example 95]", "IC50": 18.1}
{"smiles": "CN1CCc2[nH]c(=O)c(Nc3ncc4ccnc(N5CCSCC5)c4n3)cc2C1", "note": "[US20230399327, Example 72]", "IC50": 21.2}
{"smiles": "CCOc1nc2c(cc1Nc1ncc3ccnc(N[C@H]4CC[C@@H](O)C4)c3n1)CN(C)CC2", "note": "[US20230399327, Example 98]", "IC50": 0.44}
{"smiles": "COc1nc2c(cc1Nc1ncc3ccnc(N4CC(F)(F)C[C@H]4CO)c3n1)CN(C)CC2", "note": "[US20230399327, Example 108]", "IC50": "< 0.1"}
{"smiles": "CN1CCc2c(cc(Nc3ncc4ccnc(N5CCC(F)(F)C5)c4n3)c(=O)n2C)C1", "note": "[US20230399327, Example 85]", "IC50": 25.3}
